Measurements published in patent publication US20170051249A1, “MANIPULATION OF OVARIAN PRIMORDIAL FOLLICLES” (The Board of Trustees of the Leland Stanford junior …, priority 2009, published 2017).

How the values were obtained:
PTP = conditions: read-out: IC50 as PTP inhibitor; cited from earlier work
[1] = system: dormant primordial follicles of neonatal ovaries; experiment: Transient in vitro exposure of neonatal mouse ovaries to PTEN inhibitor, kidney capsule transplantation into ovariectomized FSH-treated hosts, histology (Examples 2 and 3); format: in vivo
Experimental: Ovaries fixed for at least 24 h are dehydrated, embedded in paraffin, and serially sectioned at 5 μm intervals. The sections are mounted on glass slides and stained with Mayers hematoxylin and eosin. Follicles are counted using the dissector and fractionator principles (see Mayhew et al. (1991) Exp Physiol 76:639-65). Every fifth section of each ovary is used for analysis. Follicle stages are determined based on the classification used by Flaws et al. (1997) Biol. Reprod. 57:1233-1237. Follicles are assessed blindly and confirmed by two investigators. Data is expressed as percentage of follicle per ovary.
Follicles are identified as healthy if they contained an intact oocyte, organized granulosa and thecal cell layers, and no pyknotic bodies. Follicles are considered atretic if they contain a degenerating oocyte, disorganized granulosa cells with pyknotic nuclei or apoptotic bodies. Follicles will be scored as “primordial” if they contain an intact oocyte with a visible nucleolus surrounded by a single layer of fusiform-shaped granulosa cells. Follicles are scored as “primary” if they consist of an intact, enlarged oocyte with a visible nucleolus and a single layer of cuboidal granulosa cells. Follicles are scored as preantral if they contain an oocyte with a visible nucleolus and more than one layer of granulosa or thecal cells. To obtain an estimate of the total number of follicles per ovary, the number of primordial, primary, and preantral follicles are multiplied by 5 to account for the fact that every fifth section was used for analyses. Statistical analysis of follicle number is performed using Sigmastat statistical software v.2 (Jandel Corporation, San Rafael, Calif., USA).
Transient incubation of neonatal ovaries in vitro with bpV(pic) may avoid the adverse side effects of the PTEN inhibitor in vivo to allow a tissue-specific action of the inhibitor. After treatment using the PTEN inhibitor, ovaries are transplanted into adult hosts. To facilitate follicle growth, adult recipients are ovariectomized to increase endogenous gonadotropin levels. […]

[2] = system: Foxo3 nuclear export in primordial oocytes; experiment: Foxo3 nuclear export in primordial follicles of human ovarian cortical cubes; format: cell-based; conditions: 1 h treatment, 100 uM
Experimental: (§1) Informed consent from the patient and approval from the Human Subject Committee of Akita University were obtained. Ovarian cortex was isolated and cut into small cubes (˜1 mm^3). After treatment of cortical cubes for 1 h with bpV(pic), some samples were used for immunohistochemical staining for Foxo3. Some ovarian cubes were also cultured in MEM-a medium containing 10% human serum albumin (Mitsubishi Tanabe Pharma Corp, Osaka, Japan), 1% antibiotic/antimycotic solution (Invitrogen), and 0.3 IU/ml FSH. Pairs of cortical cubes were treated with bpV(pic) ([…]) or saline for 24 h before xeno-transplantation into each side of the kidney capsule of ovariectomized, immune-deficient SCID mice. An i.p. injection of antibiotic (4 μg/g body weight; gentamicin; Invitrogen) was given while animals were anesthetized by 2,2,2-tribromoethanol (0.4 mg/g body weight; avertin; Sigma). Three day after transplantation, animals were treated i.p. with FSH (1 IU/animal) every 48 h for 24 weeks. At 36 h before sample retrieval, hCG (20 IU/animal) was injected subcutaneously. Ovarian grafts were recovered for histological analyses and follicle counting.

[3] = system: human primordial follicles; experiment: Human follicle activation: cortical cubes treated in vitro, xeno-transplanted into kidney capsule of ovariectomized SCID mice, follicle counting; format: in vivo
Experimental: as §1

PTEN = PTEN (Homo sapiens, UniProt P60484); conditions: in vitro, known inhibitors; read-out: IC50 for inhibition of PTEN; cited from earlier work
Chain of PTEN (P60484 whole entry): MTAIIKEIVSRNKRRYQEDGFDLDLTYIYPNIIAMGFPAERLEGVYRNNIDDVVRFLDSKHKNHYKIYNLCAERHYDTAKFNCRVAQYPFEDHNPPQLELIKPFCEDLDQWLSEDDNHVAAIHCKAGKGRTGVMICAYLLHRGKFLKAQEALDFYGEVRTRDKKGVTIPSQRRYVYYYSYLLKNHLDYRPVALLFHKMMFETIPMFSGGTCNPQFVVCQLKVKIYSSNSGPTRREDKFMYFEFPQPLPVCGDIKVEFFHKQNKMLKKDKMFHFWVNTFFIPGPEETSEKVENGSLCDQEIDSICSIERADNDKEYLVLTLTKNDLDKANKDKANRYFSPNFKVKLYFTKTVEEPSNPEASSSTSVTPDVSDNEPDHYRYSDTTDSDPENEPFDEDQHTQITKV

[4] = antral follicles of four grafts, after hCG

Compound: monoperoxo(picolinato)oxovanadate(V)
- IC50 (PTP): 18 µM

Compound: O.O.O=C([O-])c1ccccn1.OO.OO.[K+].[K+].[OH-].[V] [bpV(pic), dipotassium bisperoxo(picolinato)oxovanadate (V)]
- ovarian size as compared with control ovaries ([1]; 100 μM for 24 h in vitro, twelve days after transplantation): clear increases in sizes
- decrease of the percentage of primordial (Pmd) follicles as compared to controls ([1]; 250 uM for 6 h in vitro, day 3 Balb/c ovaries, transplanted, FSH 12 days, preliminary analysis, three pairs of ovaries): 60%
- effect on follicle development and nuclear maturation of the preovulatory oocyte ([1]; 6 h in vitro exposure, 15 days after transplantation, hCG 8 h): did not cause detrimental effects
- increase in nuclear exclusion of Foxo3 versus controls [2]: 2 fold
- follicles that left the dormant primordial pool and developed into larger follicles ([3]; 24 h treatment (100 mM), after transplantation, FSH 24 weeks): 89%
- graft size as compared with controls ([3]; 24 h treatment, 6 months after xeno-transplantation): major increases in graft sizes
- increases in the number of secondary and antral follicles ([3]; 24 h treatment, after xeno-transplantation): ~4 fold
- number of oocytes at GV stage [3, 4]: 5
- number of oocytes at MI stage [3, 4]: 15
- number of oocytes at MII stage [3, 4]: 12
- number of antral follicles (>1 mm diameter) ([3]; in four ovarian grafts): 32
- malignancy in xenografted human ovaries or hosts ([3]; six months of transplantation, short term exposure): No malignancy was found
- increase in the number of antral follicles ([3]; versus paired control grafts): 4 fold
- increase in the number of mature (MI & MII) oocytes ([3]; versus paired control grafts): 27 fold
- IC50 (PTEN): 0.031 µM

Compound: potassium bisperoxo(bipyridine)oxovanadate (V)
- IC50 (PTEN): 0.018 µM

Compound: dipotassium bisperoxo(5-hydroxypyridine-2-carboxyl)oxovanadate (V)
- IC50 (PTEN): 0.014 µM

Compound: OO.OO.[K+].[OH-].[V].c1cnc2c(c1)ccc1cccnc12 [potassium bisperoxo (1,10-phenanthroline)oxovanadate (V)]
- IC50 (PTEN): 0.038 µM
